According to patent publication US20230037905A1 (Vyne Therapeutics Inc., priority 2019, published 2023):
pKd: −log10 of the molar value. Structures can show the parent of a compound that is named as a salt. Values belong to the compound of their own block, whether it stands above or below them.

Tests used:
[1] = Chemical stability of formulations (HPLC); assay type: physicochemical
Protocol: Where another active agent such as fingolimod is present in the formulations the samples are analysed for that active agent and its degradation products by HPLC. […] The gradient elution is employed.

[2] = tested on: Reconstructed Human Epidermis (RHE) tissues exposed to Th2 cytokines IL-4, IL-13, IL-25; experiment: Reconstructed Human Epidermis (RHE) Th2 AD model (StratiCELL); assay type: cell-based; conditions: 48 h
Protocol: Reconstructed Human Epidermis (RHE) tissues are produced and grown by StratiCELL. To generate the morphological and functional aspects of AD, RHE samples are exposed to Th2 cytokines IL-4, IL-13, IL-25. Th-2 cytokines are applied for 48 h in the culture medium of epidermis. Test formulations are applied simultaneously with the cytokines on the stratum corneum of the epidermis during the same 48 h. The tissue morphology is assessed by histology and hemalum/eosin (H/E) staining—quantification of a fluorescent dye (biotin) diffusion through the epidermis in order to evaluate the barrier function.

[3] = Stability of Tofacitinib Citrate solution in 50 mM citrate buffer of different pH at 60° C.; assay type: physicochemical; parameters: unit not given here
[4] = Compatibility test of tofacitinib citrate with excipients at 60° C.; assay type: physicochemical; parameters: TOF assay: unit not given here; conditions: 10 weeks at 60° C.
Protocol: The mixtures are tightly closed and exposed to 60° C. protected from light.

[5] = Solubility test (saturated solutions, HPLC); assay type: physicochemical
Protocol: An additional analysis is performed after 48 hours of agitation to confirm the determined saturated concentration.

[6] = Stability of Tofacitinib Citrate solution in 50 mM citrate buffer of different pH at 60° C.; assay type: physicochemical; parameters: unit not given here; remark: listed apart in the source
Excerpt: In one or more embodiments the pH, is about 4, about 4.1, about 4.2, about 4.3, about 4.4, about 4.5, about 4.6, about 4.7, about 4.8, about 4.9 or about 5.

in vivo = experiment: in vivo; parameters: species or system Minipigs; conditions: minipig, Tofacitinib concentration
Protocol: Minipigs are treated topically on 10% body surface area, once daily for 14 days with the tested formulation.

[7] = biological target: S1P receptors (S1P1 and S1P3-5); conditions: four of the five S1P receptors (S1P1 and S1P3-5); read-out: affinity; cited from earlier work
[8] = in Water + Carboxymethylcellulose
[9] = in Water + Glyceryl Monosteatate

SMILES: CCCCCCCCc1ccc(CCC(N)(CO)CO)cc1 [fingolimod hydrochloride, Fingolimod hydrochloride]
chemical stability of active agent in formulation [1]: stable at 5° C., 40 °C and 50 °C

SMILES: CCCCCCCCc1ccc(CCC(N)(CO)CO)cc1 [Fingolimod, 2-amino-2-[2-(4-octylphenyl)ethyl]propane-1,3-diol]
barrier function (biotin immunofluorescence) ([2]; 0.001% w/w): reduced the Th2-induced barrier alteration
tissue morphology (histology, H/E staining) ([2]; 0.001% w/w): reduced the Th2-induced barrier alteration
barrier function (biotin immunofluorescence) ([2]; 0.01% w/w): reduced the Th2-induced barrier alteration
tissue morphology (histology, H/E staining) ([2]; 0.01% w/w): reduced the Th2-induced barrier alteration
tissue morphology (histology, H/E staining) ([2]; 0.1% w/w): increased fragilization was observed with junction/adhesion loss and disorganization of cell layers
barrier function (biotin immunofluorescence) ([2]; 0.1%): Increased barrier alteration
tissue morphology (histology, H/E staining) ([2]; 1% w/w): increased fragilization was observed with junction/adhesion loss and disorganization of cell layers
barrier function (biotin immunofluorescence) ([2]; 1%): Increased barrier alteration

RRT 0.48 (impurity) ([3]; pH 3, 1 w): 0.10
RRT 0.89 (impurity) ([3]; pH 3, 1 w): 0.10
TOF assay ([3]; pH 3, 1 w): 93.92
RRT 0.40 (impurity) ([3]; pH 3, 2 w): 0.09
RRT 0.48 (impurity) ([3]; pH 3, 2 w): 0.11
RRT 0.89 (impurity) ([3]; pH 3, 2 w): 0.09
RRT 1.42 (impurity) ([3]; pH 3, 2 w): 0.09
TOF assay ([3]; pH 3, 2 w): 100.09
Imp B ([3]; pH 4, 1 w): 0.09
TOF assay ([3]; pH 4, 1 w): 102.57
RRT 1.42 (impurity) ([3]; pH 5, 1 w): 0.14
RRT 0.80 (impurity) ([3]; pH 5, 2 w): 0.08
TOF assay ([3]; pH 6, 1 w): 99.67
RRT 0.89 (impurity) ([3]; pH 6, 2 w): 0.09
TOF assay ([3]; pH 6, 2 w): 100.09
Deg. products ([4]; in MCT oil): 0.09
TOF assay ([4]; in MCT oil): 108.4
Deg. products [4, 8]: 9.33
TOF assay [4, 8]: 48.1
Deg. products ([4]; in Water + Ceteareth 20): 4.57
TOF assay ([4]; in Water + Ceteareth 20): 67.7
Deg. products ([4]; in Water + Glycerin): 10.16
TOF assay ([4]; in Water + Glycerin): 63.9
Deg. products [4, 9]: 2.62
TOF assay [4, 9]: 75.6
Deg. products ([4]; in Water + Hypermellose K100M): 4.64
TOF assay ([4]; in Water + Hypermellose K100M): 14.2
Deg. products ([4]; in Water + Methyl Paraben): 4.14
TOF assay ([4]; in Water + Methyl Paraben): 81.6
Deg. products ([4]; in Water + Propyl Paraben): 3.01
TOF assay ([4]; in Water + Propyl Paraben): 93.0
Deg. products ([4]; in Water + Stearic Acid): 3.64
TOF assay ([4]; in Water + Stearic Acid): 79.4
Deg. products ([4]; in Water + Stearyl Alcohol): 2.21
TOF assay ([4]; in Water + Stearyl Alcohol): 73.1
Deg. products ([4]; in Water + Xanthan Gum): 28.23
TOF assay ([4]; in Water + Xanthan Gum): 7.7
Deg. products ([4]; in Water): 1.90
TOF assay ([4]; in Water): 106.7
Solubility of TOF Citrate ([5]; in 0.02% HCl): 4.06 mg/g
Solubility of TOF Citrate ([5]; in 0.05% NaOH (degraded)): not detected
Solubility of TOF Citrate ([5]; in Benzyl Alcohol): 0.81 mg/g
Solubility of TOF Citrate ([5]; in DMSO): >150 mg/g
solubilized tofacitinib citrate concentration ([5]; in DMSO): > 15%
Solubility of TOF Citrate ([5]; in Diisopropyl adipate): 0.02 mg/g
Solubility of TOF Citrate ([5]; in Dimethyl isosorbate): 1.27 mg/g
Solubility of TOF Citrate ([5]; in Ethanol): 0.61 mg/g
Solubility of TOF Citrate ([5]; in Glycerin): 0.97 mg/g
Solubility of TOF Citrate ([5]; in Hexylene Glycol): 0.25 mg/g
Solubility of TOF Citrate ([5]; in Isopropyl Alcohol): 0.24 mg/g
Solubility of TOF Citrate ([5]; in Isopropyl myristate): <0.02 mg/g
Solubility of TOF Citrate ([5]; in MCT oil (Caprylic/capric triglycerides)): <0.01 mg/g
Solubility of TOF Citrate ([5]; in Oleyl alcohol): 0.09 mg/g
Solubility of TOF Citrate ([5]; in PPG-11 Stearyl ether): 0.02 mg/g
Solubility of TOF Citrate ([5]; in Propylene Glycol): 1.70 mg/g
Solubility of TOF Citrate ([5]; in Transcutol): 2.01 mg/g
Solubility of TOF Citrate ([5]; in Water): 2.77 mg/g
Solubility of TOF Citrate ([5]; in polyethylene glycol 200): 5.16 mg/g
solubilized tofacitinib citrate concentration ([5]; in polyethylene glycol 200): about 0.5%
Solubility of TOF Citrate ([5]; in polyethylene glycol 400): 6.96 mg/g
solubilized tofacitinib citrate concentration ([5]; in polyethylene glycol 400): about 0.7%
TOF assay ([6]; pH 4, 2 w): 106.31
TOF assay ([6]; pH 4.5, 1 w): 108.64
TOF assay ([6]; pH 4.5, 2 w): 99.84
RRT 1.42 (impurity) ([6]; pH 5, 2 w): 0.14
TOF assay ([6]; pH 5, 2 w): 101.02
SMILES: C[C@@H]1CCN(C(=O)CC#N)C[C@@H]1N(C)c1ncnc2[nH]ccc12 [Tofacitinib citrate]

concentration at 4 h (in vivo): 1.48 ng/mL
concentration at 8 h (in vivo): 1.32 ng/mL
concentration at 24 h (in vivo): 0.688 ng/mL
SMILES: C[C@@H]1CCN(C(=O)CC#N)C[C@@H]1N(C)c1ncnc2[nH]ccc12 [Tofacitinib]

SMILES: CCCCCCCCc1ccc(CC[C@](N)(CO)COP(=O)(O)O)cc1 [fingolimod-phosphate]
pKd [7]: 8.51 to 9.52
